Experimental data: patent US10918610B2, “Compounds and methods of promoting myelination” (Case Western Reserve University, priority 2017, dated 2021)

Tested on: EpiSC-derived OPCs
Experiment: Formation of differentiated MBP+ oligodendrocytes from OPCs in vitro (high-content imaging)
Type: cell-based, mouse
From the text: EpiSC-derived OPCs were obtained using in vitro differentiation protocols and culture conditions described previously. To ensure uniformity throughout all in vitro screening experiments, EpiSC-derived OPCs were sorted to purity by fluorescence activated cell sorting at passage five with conjugated CD 140a-APC (eBioscience, 17-1401; 1:80) and NG2-AF488 (Millipore, AB5320A4; 1:100) antibodies. Sorted batches of OPCs were expanded and frozen down in aliquots. OPCs were thawed into growth conditions for one passage before use in further assays. Cultures were regularly tested and shown to be mycoplasma free.
EpiSC-derived OPCs were grown and expanded in poly-ornithine (PO) and laminin-coated flasks with growth medium (DMEM/F12 supplemented with N2-MAX (R&D Systems), B-27 (ThermoFisher), GlutaMax (Gibco), FGF2 ([…], R&D systems, 233-FB-025) and PDGF-AA ([…], R&D systems, 233-AA-050) before harvesting for plating. The cells were seeded onto poly-D-lysine 96-well CellCarrier plates (PerkinElmer) coated with laminin (Sigma, L2020; 15 μg/ml) using multi-channel pipet. For the experiment, 800,000 cells/mL stock in differentiation medium (DMEM/F12 supplemented with N2-MAX and B-27) was prepared and stored on ice for 2 h. […]
Plates were imaged on the Operetta High Content Imaging and Analysis system (PerkinElmer) and a set of 6 fields captured from each well resulting in an average of 1200 cells being scored per well. […] Each traced nucleus region was then expanded by 50% and cross-referenced with the […] (MBP) stain to identify oligodendrocyte nuclei, and from this the percentage of oligodendrocytes was calculated. In some experiments, the total process length of MBP+ oligodendrocytes was calculated as previously described.
OPCs were generated from the EpiSC5 cell line. […] To ensure uniformity throughout all in vitro screening experiments, EpiSC-derived OPCs were sorted to purity by fluorescence activated cell sorting at passage five with conjugated CD 140a-APC (eBioscience, 17-1401; 1:80) and NG2-AF488 (Millipore, AB5320A4; 1:100) antibodies. […]

## CCN(C/C=C\c1ccc(C2CCCCC2)c(Cl)c1)C1CCCCC1 [Cis-N-cyclohexyl-N-ethyl-3-(3-chloro-4-cyclohexylphenyl)prop-2-enylamine]
63 nM, 125 nM, 250 nM and 500 nM versus ketoconazole 2.5 μM
  number of differentiated MBP+ oligodendrocytes from OPCs compared with ketoconazole: at higher rates than ketoconazole
0.03, 0.1, 0.3 and 1 um, 40,000 cells per well, 3 days
  formation of MBP+ oligodendrocytes in culture (FIG. 1A): enhances formation of MBP+ oligodendrocytes
Wider range of concentrations (2 nM to 500 nM), 50,000 cells per well, N2B27 media, no growth factors
  formation of MBP+ oligodendrocytes in in vitro cultures of OPCs (FIG. 4): enhances formation of MBP+ oligodendrocytes
